Data taken from patent US8124381B2, “Process and materials for production of glucosamine and N-acetylglucosamine” (Arkion Life Sciences, priority 2002, dated 2012).
“Also recorded” adds a separate entry of the source.

Columns and labels:
[1] = target: T1, E. coli glucosamine synthase GlmS*54 (Escherichia coli, UniProt P17169, A39T/G472S/R250C); test: Effects of phosphorylated sugars on glucosamine synthase; format: biochemical
T1 construct: made in house; host or cells: E. coli 7107-18 (printed '7017-18'; T7-glmS*54 integrated at galK) and strains derived from it; crude extract
Description: (§1) Glucosamine synthetase activity was examined in the presence of various phosphorylated sugars. Crude enzyme extracts was prepared from cells of 7017-18 grown in shake flasks for 24 hours with lactose induction.

[2] = target: glucose-6-P dehydrogenase (zwf) (Escherichia coli, UniProt P0AC53, A9V); test: Effect of phosphorylated amino sugars on glucose-6-P dehydrogenase; format: biochemical; details: in vitro, FIG. 16
[3] = target: T2, E. coli GlmS (glucosamine-6-phosphate synthase), wild type, SEQ ID NO:2 (strain 2123-12) (Escherichia coli, UniProt P17169); test: GlmS (glucosamine synthase) inhibition and Michaelis-Menten kinetics, crude extract of strain 2123-12; format: biochemical
T2 construct: made in house; host or cells: E. coli strain 2123-12 (T7-glmS integrated in the chromosome), crude cell extract
Description: (§2) Different glucosamine synthetase enzymes, including native B. subtillus GlmS, native E. coli GlmS and mutant E. coli GlmS, were studied in vitro. Cells of various E. coli strains were grown in the M9A medium, harvested, and frozen. Cells extracts were prepared and the glucosamine synthetases were characterized and compared.
(§3) Enzyme sensitivities to the reaction product glucosamine-6-P were examined. […] This figure highlights the dramatic difference between the wild type GlmS and these mutant GlmS strains.
(§4) The Mutants 2123-54 and the B. subtilis enzyme have higher Ki values (Table 6). Measured Ki constants for several of these mutants are 4 to 8 times the value for the native enzyme in strain 2123-12. From shake flask studies it is apparent that decreased sensitivity to glucosamine-6-P allows higher glucosamine levels to accumulate.
(§5) These values are slightly higher than those obtained with the native enzyme.

[4] = target: T3, E. coli GlmS mutant GlmS*54, SEQ ID NO:6 (Ala39Thr, Arg250Cys, Gly472Ser) (strain 2123-54) (Escherichia coli, UniProt P17169, A39T/G472S/R250C); test: GlmS inhibition and Michaelis-Menten kinetics, crude extract of strain 2123-54; format: biochemical
T3 construct: made in house; host or cells: E. coli strain 2123-54 (lacZ::T7-glmS*54), crude cell extract
T3 sequence (P17169 2-609 A39T/R250C/G472S): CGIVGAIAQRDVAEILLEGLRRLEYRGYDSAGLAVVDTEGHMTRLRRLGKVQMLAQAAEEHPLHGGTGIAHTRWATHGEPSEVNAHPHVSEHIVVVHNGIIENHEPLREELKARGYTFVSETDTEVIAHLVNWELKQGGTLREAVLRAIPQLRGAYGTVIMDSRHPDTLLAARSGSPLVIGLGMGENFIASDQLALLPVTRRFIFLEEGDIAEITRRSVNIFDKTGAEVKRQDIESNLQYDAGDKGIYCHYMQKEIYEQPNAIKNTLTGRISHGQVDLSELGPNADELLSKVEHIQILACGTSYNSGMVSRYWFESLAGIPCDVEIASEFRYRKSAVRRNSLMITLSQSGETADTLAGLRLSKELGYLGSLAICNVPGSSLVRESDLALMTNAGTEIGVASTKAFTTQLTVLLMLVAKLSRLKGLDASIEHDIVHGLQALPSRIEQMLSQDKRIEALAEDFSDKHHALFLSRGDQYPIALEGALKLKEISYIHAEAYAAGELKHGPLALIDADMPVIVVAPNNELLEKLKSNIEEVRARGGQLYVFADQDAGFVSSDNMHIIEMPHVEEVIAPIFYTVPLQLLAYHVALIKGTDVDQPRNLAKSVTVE
Description: as §2, §3, §4, §5

[5] = target: E. coli GlmS mutant GlmS*110 (Escherichia coli, UniProt P17169); test: GlmS inhibition and Michaelis-Menten kinetics; format: biochemical; details: read-out: Ki (GlcN-6-P)
Description: as §2, §3, §4, §5

[6] = target: T4, E. coli GlmS mutant GlmS*124, SEQ ID NO:8 (Leu469Pro) (strain 2123-124) (Escherichia coli, UniProt P17169, L469P); test: GlmS inhibition and Michaelis-Menten kinetics; format: biochemical
T4 construct: made in house; host or cells: E. coli strain 2123-124, cell extract
Description: as §2, §3, §4, §5

[7] = target: E. coli GlmS mutant GlmS*69 (Escherichia coli, UniProt P17169); test: GlmS inhibition and Michaelis-Menten kinetics; format: biochemical; details: read-out: Ki (GlcN-6-P)
Description: as §2, §3, §4, §5

[8] = target: T5, E. coli GlmS mutant GlmS*72, SEQ ID NO:14 (Glu15Lys, Asp387Val, Ser450Pro, Glu525Gly) (strain 2123-72) (Escherichia coli, UniProt P17169, D387V/E15K/E525G/S450P); test: GlmS inhibition and Michaelis-Menten kinetics; format: biochemical
T5 construct: made in house; host or cells: E. coli strain 2123-72 (from 7101-17(DE3), plasmid with glmS*72 integrated), cell extract
Description: as §2, §3, §4, §5

[9] = target: T6, Bacillus subtilis GlmS, wild type, SEQ ID NO:16 (Bacillus subtilis, UniProt P0CI73); test: biochemical
T6 construct: made in house; host or cells: E. coli 7107-24 (7101-17(DE3) with pET24d(+)/B. subtilis glmS from ATCC23856), crude cell extract
Description: as §2
Enzyme sensitivities to the reaction product glucosamine-6-P were examined.

[10] = target: E. coli GlmS mutant GlmS*4 (strain 2123-4) (Escherichia coli, UniProt P17169); test: GlmS sensitivity to inhibition by glucosamine-6-P; format: biochemical; details: 0-30 mM glucosamine-6-P; FIG. 5
Description: as §2, §3

[11] = target: E. coli GlmS mutant GlmS*59 (strain 2123-59) (Escherichia coli, UniProt P17169); test: GlmS sensitivity to inhibition by glucosamine-6-P; format: biochemical; details: 0-30 mM glucosamine-6-P; FIG. 5
Description: as §2, §3

[12] = target: E. coli GlmS mutant GlmS*64 (strain 2123-64) (Escherichia coli, UniProt P17169); test: GlmS sensitivity to inhibition by glucosamine-6-P; format: biochemical; details: 0-30 mM glucosamine-6-P; FIG. 5
Description: as §2, §3

[13] = target: E. coli glucosamine synthase GlmS*54, SEQ ID NO:6 (Ala39Thr, Arg250Cys, Gly472Ser) (Escherichia coli, UniProt P17169, A39T/G472S/R250C); test: Effects of phosphorylated sugars on glucosamine synthase, crude extract of lactose-induced 7107-18 cells; format: biochemical; details: 10 mM or relatively high concentration
Description: as §1

[14] = tested on: phosphoglucoisomerase (Pgi); test: Effect of phosphorylated amino sugars on phosphoglucoisomerase activity (FIG. 15); format: biochemical; details: in vitro
From the text: Therefore, effects of glucosamine-6-P and N-acetylglucosamine-6-P on several of the enzymes were examined.

[15] = target: phosphoglucoisomerase (Pgi) (Escherichia coli, UniProt P0A6T1); details: literature; cited from earlier work
[16] = tested on: phosphoglucoisomerase (Pgi); details: cited from earlier work
[17] = 0-30 mM glucosamine-6-P, FIG. 5

T4 sequence (P17169 2-609 L469P): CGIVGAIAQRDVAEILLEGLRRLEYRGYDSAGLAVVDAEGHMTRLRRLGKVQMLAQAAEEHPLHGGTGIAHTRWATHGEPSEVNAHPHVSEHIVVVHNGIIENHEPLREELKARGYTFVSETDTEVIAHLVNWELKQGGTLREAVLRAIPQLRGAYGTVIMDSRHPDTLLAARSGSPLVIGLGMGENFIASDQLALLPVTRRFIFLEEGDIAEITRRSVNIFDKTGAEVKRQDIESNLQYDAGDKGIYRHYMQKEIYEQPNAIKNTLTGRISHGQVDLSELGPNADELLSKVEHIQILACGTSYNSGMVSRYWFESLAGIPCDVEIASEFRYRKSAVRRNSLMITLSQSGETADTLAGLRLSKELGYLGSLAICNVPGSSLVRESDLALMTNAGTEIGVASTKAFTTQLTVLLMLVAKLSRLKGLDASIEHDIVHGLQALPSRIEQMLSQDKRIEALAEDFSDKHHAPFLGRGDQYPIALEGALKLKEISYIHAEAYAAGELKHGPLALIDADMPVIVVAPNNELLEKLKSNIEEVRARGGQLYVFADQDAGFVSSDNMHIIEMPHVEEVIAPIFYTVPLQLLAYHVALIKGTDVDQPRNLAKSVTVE
T5 sequence (P17169 2-609 E15K/D387V/S450P/E525G): as the sequence (P17169 2-609 L469P) above, with E14K, D386V, S449P, P468L, E524G counted along it
T2 sequence (P17169 2-609 limits assumed): as the sequence (P17169 2-609 L469P) above, with P468L counted along it
T6 sequence (P0CI73 2-600): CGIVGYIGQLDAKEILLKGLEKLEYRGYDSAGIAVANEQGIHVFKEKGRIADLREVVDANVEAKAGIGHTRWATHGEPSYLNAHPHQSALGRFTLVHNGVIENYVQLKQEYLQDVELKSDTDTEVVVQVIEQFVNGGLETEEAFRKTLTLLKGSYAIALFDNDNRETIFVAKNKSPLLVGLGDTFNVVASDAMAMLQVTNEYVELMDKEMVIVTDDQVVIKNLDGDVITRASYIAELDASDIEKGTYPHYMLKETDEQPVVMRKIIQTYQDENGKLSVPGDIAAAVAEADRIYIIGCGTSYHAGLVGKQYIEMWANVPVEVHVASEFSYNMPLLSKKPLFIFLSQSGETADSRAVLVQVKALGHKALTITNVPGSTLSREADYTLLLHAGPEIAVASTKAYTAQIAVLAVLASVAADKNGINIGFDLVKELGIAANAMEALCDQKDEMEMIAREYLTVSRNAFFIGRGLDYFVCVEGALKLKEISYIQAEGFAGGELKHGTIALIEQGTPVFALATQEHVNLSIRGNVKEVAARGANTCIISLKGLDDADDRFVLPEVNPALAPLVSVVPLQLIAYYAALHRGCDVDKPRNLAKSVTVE
E. coli GlmS mutant GlmS*69, sequence (P17169 whole entry, change not shown): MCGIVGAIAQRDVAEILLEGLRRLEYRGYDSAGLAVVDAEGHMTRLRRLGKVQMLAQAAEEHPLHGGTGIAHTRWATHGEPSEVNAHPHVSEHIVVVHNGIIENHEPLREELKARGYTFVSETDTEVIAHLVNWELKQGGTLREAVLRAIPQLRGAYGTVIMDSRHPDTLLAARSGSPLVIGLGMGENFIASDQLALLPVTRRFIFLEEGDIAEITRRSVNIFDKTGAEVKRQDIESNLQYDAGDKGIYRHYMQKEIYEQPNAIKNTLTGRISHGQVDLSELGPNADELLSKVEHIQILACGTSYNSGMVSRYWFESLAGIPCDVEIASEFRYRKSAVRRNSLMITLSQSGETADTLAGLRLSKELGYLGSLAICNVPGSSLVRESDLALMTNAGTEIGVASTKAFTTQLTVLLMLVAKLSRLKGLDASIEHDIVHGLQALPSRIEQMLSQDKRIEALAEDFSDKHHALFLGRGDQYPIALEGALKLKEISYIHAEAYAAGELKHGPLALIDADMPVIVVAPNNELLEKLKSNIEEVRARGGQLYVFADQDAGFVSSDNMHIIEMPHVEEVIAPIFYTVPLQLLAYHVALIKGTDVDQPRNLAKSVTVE
E. coli GlmS mutant GlmS*59 (strain 2123-59), sequence (P17169 whole entry, change not shown): as above
E. coli GlmS mutant GlmS*4 (strain 2123-4), sequence (P17169 whole entry, change not shown): as above
E. coli GlmS mutant GlmS*64 (strain 2123-64), sequence (P17169 whole entry, change not shown): as above
E. coli GlmS mutant GlmS*110, sequence (P17169 whole entry, change not shown): as above
E. coli glucosamine synthase GlmS*54, SEQ ID NO:6 (Ala39Thr, Arg250Cys, Gly472Ser), sequence (P17169 whole entry A39T/R250C/G472S): as the sequence (P17169 whole entry, change not shown) above, with A39T, R250C, G472S counted along it
glucose-6-P dehydrogenase (zwf), sequence (P0AC53 whole entry A9V): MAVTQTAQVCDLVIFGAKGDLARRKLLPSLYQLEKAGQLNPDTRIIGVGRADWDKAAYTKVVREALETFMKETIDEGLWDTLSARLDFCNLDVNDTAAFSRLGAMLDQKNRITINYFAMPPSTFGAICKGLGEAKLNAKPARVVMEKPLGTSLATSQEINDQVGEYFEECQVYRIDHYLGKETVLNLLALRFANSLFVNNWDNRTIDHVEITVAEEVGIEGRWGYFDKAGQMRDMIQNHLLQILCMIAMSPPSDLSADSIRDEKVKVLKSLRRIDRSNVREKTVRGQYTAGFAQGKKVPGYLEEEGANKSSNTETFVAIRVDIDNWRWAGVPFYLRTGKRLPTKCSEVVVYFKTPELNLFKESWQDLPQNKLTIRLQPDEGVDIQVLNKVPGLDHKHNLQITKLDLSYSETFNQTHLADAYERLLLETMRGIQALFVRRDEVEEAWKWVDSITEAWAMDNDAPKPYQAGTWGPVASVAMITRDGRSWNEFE
phosphoglucoisomerase (Pgi) (Escherichia coli, UniProt P0A6T1), sequence (P0A6T1 whole entry): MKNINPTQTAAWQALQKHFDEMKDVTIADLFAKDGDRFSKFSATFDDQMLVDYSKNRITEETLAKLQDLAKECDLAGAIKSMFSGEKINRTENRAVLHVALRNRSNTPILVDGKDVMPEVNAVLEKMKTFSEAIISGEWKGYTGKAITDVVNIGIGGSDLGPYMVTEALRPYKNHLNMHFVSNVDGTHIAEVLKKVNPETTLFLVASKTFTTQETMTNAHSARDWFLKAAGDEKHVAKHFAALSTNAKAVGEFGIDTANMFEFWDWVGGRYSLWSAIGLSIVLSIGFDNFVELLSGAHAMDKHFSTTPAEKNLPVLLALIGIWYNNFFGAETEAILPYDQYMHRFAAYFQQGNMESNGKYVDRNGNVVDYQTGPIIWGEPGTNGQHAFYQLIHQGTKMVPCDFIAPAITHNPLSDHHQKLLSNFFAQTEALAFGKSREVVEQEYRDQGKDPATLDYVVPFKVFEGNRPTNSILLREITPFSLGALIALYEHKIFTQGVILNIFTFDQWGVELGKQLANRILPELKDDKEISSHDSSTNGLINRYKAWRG

N[C@H]1C(O)O[C@H](COP(=O)(O)O)[C@@H](O)[C@@H]1O (stereo partly drawn) [glucosamine-6-P, glucosamine-6-phosphate]
activity at 10000 µM [1]: 70% | activity at 20000 µM [1]: 46% | inhibition of glucosamine synthetase (in words) [1]: strong inhibition | inhibition of glucose-6-P dehydrogenase (zwf) [2]: more potent inhibitor of the enzyme than N-acetylglucosamine-6-P | Ki [3]: 560 µM | inhibition at 1000 µM ([3]; read-out: loss of activity at 1 mM glucosamine-6-P): ~50% | Ki [4]: 4000 µM | effect of glucosamine-6-P on enzyme activity ([4]; 1 mM glucosamine-6-P, saturating substrates): essentially has no effect on enzyme activity | remaining activity at 10000 µM ([4]; read-out: activity remaining at 10 mM glucosamine-6-P): ~50% | Ki [5]: 1600 µM | Ki [6]: 3500 µM | sensitivity to GlcN-6-P inhibition [6, 17]: reduced sensitivity to GlcN-6-P inhibition | Ki [7]: 1500 µM | Ki [8]: 1400 µM | sensitivity to GlcN-6-P inhibition [8, 17]: reduced sensitivity to GlcN-6-P inhibition | product resistance ([9]; 0, 2 and 4 mM glucosamine-6-P, FIG. 4): product resistance very comparable to the E. coli mutant GlmS enzymes | Ki ([9]; read-out: Ki (GlcN-6-P)): 1250 µM | sensitivity to GlcN-6-P inhibition [10]: reduced sensitivity to GlcN-6-P inhibition | sensitivity to GlcN-6-P inhibition [11]: reduced sensitivity to GlcN-6-P inhibition | sensitivity to GlcN-6-P inhibition [12]: reduced sensitivity to GlcN-6-P inhibition | inhibition of glucosamine synthetase (in words) [13]: strong inhibition on glucosamine synthetase at relatively high concentration | inhibition of Pgi (in words) [14]: Inhibition is observed | reported inhibitor of phosphoglucoisomerase (Pgi) [15]: inhibitor | inhibition of phosphoglucoisomerase (literature) [16]: reported as an inhibitor of Pgi; also recorded: reported as an inhibitor of phosphoglucoisomerase
